Values joined by “and” are separate entries in the source; they are usually repeats but may differ in a detail not shown here. Identical values can stand only once.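 Following 48 hours of exposure in 96-well plates, responses at five concentrations were used to interpolate endpoints linearly. GI50 is the concentration that inhibits growth by half. TGI is the concentration that stops growth completely.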
Assays:
Test in all cases: NCI tumour cell line growth inhibition, 48 h
CCRF-CEM leukemia = tested on: CCRF-CEM leukemia
COLO 205 colon = tested on: COLO 205 colon
HCC-2998 colon = tested on: HCC-2998 colon
HOP-92 NSCLC = tested on: HOP-92 NSCLC
IGROV1 ovarian = tested on: IGROV1 ovarian
MDA-MB-231 breast = tested on: MDA-MB-231 breast
NCI-H23 lung = tested on: NCI-H23 lung
SF-539 CNS = tested on: SF-539 CNS
SNB-75 CNS = tested on: SNB-75 CNS
UACC-257 melanoma = tested on: UACC-257 melanoma

Row | SMILES | TGI (CCRF-CEM leukemia) | TGI (COLO 205 colon) | TGI (HCC-2998 colon) [µM] | TGI (HOP-92 NSCLC) | TGI (IGROV1 ovarian) [µM] | TGI (MDA-MB-231 breast) [µM] | TGI (NCI-H23 lung) | TGI (SF-539 CNS) | TGI (SNB-75 CNS) [µM] | TGI (UACC-257 melanoma) | GI50 (CCRF-CEM leukemia) | GI50 (COLO 205 colon) | GI50 (HOP-92 NSCLC) | GI50 (SNB-75 CNS)
1 | CCCCCCOc1ccc(C(=O)NOCc2ccccc2)cc1 | > 100 µM | > 100 µM | > 100 | > 100 µM | > 100 | > 100 | > 100 µM | > 100 µM | > 100 | > 100 µM | – | – | – | –
2 | Cc1cccc2c1Oc1cc(Cl)ccc1C2NC(=O)CCN1CCN(CCO)CC1 (centres undefined) | 37.9 µM | 36.6 µM | 43.7 | 22.8 µM | > 100 | 14.6 | 51.5 µM | 26 µM | 25.1 | 33.7 µM | – | – | – | –
3 | O=C(NNC(=S)Nc1ccccc1)c1ccccc1Nc1ccccc1C(=O)NNC(=S)Nc1ccccc1 | > 100 µM | 41.5 µM | 37.1 | 30.5 µM | 32.3 | 61.3 | 41.5 µM | 59.8 µM | > 100 | 56.7 µM | – | – | – | –
4 | COc1cc(-c2oc3c(OC)c(O)c(OC)c(O)c3c(=O)c2OC)cc(O)c1OC | 79.4 µM | > 100 µM | > 100 | > 100 µM | > 100 | > 100 | 76.8 µM | 45.4 µM | 42 | > 100 µM | – | – | – | –
5 | O=C1C(/C=C/c2ccc(Cl)cc2)=NNC2N1N=C1NC(=O)C3(NN12)c1ccccc1-c1ccccc13 (centres undefined) | > 100 µM | > 100 µM | > 100 | > 100 µM | > 100 | > 100 | > 100 µM | > 100 µM | > 100 | > 100 µM | – | – | – | –
6 | Cc1c(CCOC=O)c(=O)[nH]c2nncn12 | > 100 µM | > 100 µM | > 100 | > 100 µM | > 100 | > 100 | > 100 µM | > 100 µM | > 100 | > 100 µM | – | – | – | –
7 | CCCCC(=O)Nc1ccc2cc(C(=O)OC)c(ON3C(=O)c4ccccc4C3=O)nc2n1 | > 100 µM | > 100 µM | > 100 | 65.3 µM | 41 | > 100 | > 100 µM | 43.5 µM | 88.2 | > 100 µM | – | – | – | –
8 | O=C1C(CN2CCCCC2)CCCC1CN1CCCCC1 (centres undefined) | 20.6 µM and > 22.6 µM | > 56.9 µM and 16.1 µM | > 100 | 18.4 µM and 5.93 µM | > 100 | 34.7 | > 68.4 µM and 55.8 µM | > 57.5 µM and 47.8 µM | > 100 | 57.9 µM and 31.7 µM | 4.86 µM and 2.41 µM | 25.5 µM and 8.41 µM | 7.52 µM and 2.89 µM | > 100 µM and 46.2 µM
9 | Clc1ccc(Oc2ccc(N=Cc3ccc(Cl)cc3Cl)cc2Cl)cc1 | 44.8 µM | > 100 µM | > 100 | > 100 µM | > 100 | > 100 | > 100 µM | 65.1 µM | 87.4 | > 100 µM | – | – | – | –
10 | O=C(/C=C/c1ccc(Cl)cc1)Oc1ccc(/C=C2\CCCCC2=O)cc1 | > 100 µM | > 100 µM | > 100 | > 100 µM | > 100 | > 100 | > 100 µM | > 100 µM | > 100 | > 100 µM | – | – | – | –
11 | Cc1cn(C2CCC(/C=N\O)O2)c(=O)[nH]c1=O (centres undefined) | > 100 µM | > 100 µM | > 100 | > 100 µM | > 100 | > 100 | > 100 µM | > 100 µM | > 100 | > 100 µM | – | – | – | –
12 | CC(C)NC(=O)CN1CCN(C2=CC(=O)c3c(O)ccc(O)c3C2=O)CC1 | > 95.2 µM | 9.64 µM | 30.4 | 38.3 µM | 28.4 | > 63.5 | 24.3 µM | 30.5 µM | 32.6 | 19.8 µM | – | – | – | –
13 | CC1OC(OC2C(O[C@H]3CC[C@@]4(C)[C@@H](CC[C@@H]5[C@@H]4CC[C@]4(C)[C@@H]6[C@H](C[C@@H]54)O[C@]4(CC[C@@H](C)CO4)[C@H]6C)C3)OC(CO)C(OC3OC(CO)C(O)C(OC4OCC(O)C(O)C4O)C3OC3OCC(O)C(O)C3O)C2O)C(O)C(O)C1O (some centres undefined) | 0.499 µM | 1.35 µM | 3.01 | 3.11 µM | 2.73 | 9.57 | 2.93 µM | 1.25 µM | 2.86 | 2.34 µM | – | – | – | –
14 | CC1=C2C(=O)[C@H]3[C@@H](CC=C4C[C@@H](O)CC[C@@]43C)[C@@H]2CC[C@]12O[C@@H]1C[C@H](C)CN[C@H]1[C@H]2C | > 100 µM | > 100 µM | > 82.8 | 26.6 µM | > 96.4 | > 100 | > 58 µM | > 61.6 µM | > 54.4 | > 71.5 µM | – | – | – | –
15 | CC1(c2nc3cc(Cl)c(Cl)cc3[nH]2)CCC(CO)C(C)(C)O1 (centres undefined) | > 100 µM | 73.8 µM | > 100 | > 100 µM | 77.6 | 77.6 | 76.4 µM | 70.5 µM | 66.9 | > 100 µM | – | – | – | –
16 | COc1cc(C2c3cc4c(cc3OC(Nc3ccc(C(=O)O)cc3)C2C)OCO4)cc(OC)c1OC (centres undefined) | > 41.8 µM | 0.518 µM | 0.853 | > 74.6 µM | > 100 | 2.06 | > 68.7 µM | 0.561 µM | 3.53 | > 94.1 µM | – | – | – | –

From PubChem BioAssay (NCI)
